Data reported in patent publication US11752120B2, “Use of succinic acid in increasing sensitivity of bacteria to antibiotics” (SUN YAT-SEN UNIVERSITY, priority 2018, dated 2023).
Where a name gives a salt, the structure may show the parent alone.

Experiments:
[1] = test system: clinical Escherichia coli YT1-30; test: Minimum inhibitory concentration (MIC), NCCLS method, 30 clinical strains; type: cell-based; set-up: Minimum inhibitory concentration (MIC): unit not given here
From the text: (§1) Escherichia coli (E. coli) are one of the most common bacteria in the clinic. 30 strains of E. coli obtained from the clinic were named YT1-30. The minimum inhibitory concentrations (MIC) of 8 antibiotics against these 30 clinically obtained E. coli was detected according to the NCCLS method, and E. coli K12 was used as a control.

[2] = test system: E. coli K12; test: Minimum inhibitory concentration (MIC), NCCLS method, control strain; type: cell-based, Escherichia coli; conditions: no unit in table, MIC in μg/mL
From the text: as §1

Compound | Minimum inhibitory concentration (MIC) ([1]; strain YT1) | Minimum inhibitory concentration (MIC) ([1]; strain YT2) | Minimum inhibitory concentration (MIC) ([1]; strain YT3) | Minimum inhibitory concentration (MIC) ([1]; strain YT4) | Minimum inhibitory concentration (MIC) ([1]; strain YT5) | Minimum inhibitory concentration (MIC) ([1]; strain YT6) | Minimum inhibitory concentration (MIC) ([1]; strain YT7) | Minimum inhibitory concentration (MIC) ([1]; strain YT8) | Minimum inhibitory concentration (MIC) ([1]; strain YT9) | Minimum inhibitory concentration (MIC) ([1]; strain YT10) | Minimum inhibitory concentration (MIC) ([1]; strain YT11) | Minimum inhibitory concentration (MIC) ([1]; strain YT12) | Minimum inhibitory concentration (MIC) ([1]; strain YT13) | Minimum inhibitory concentration (MIC) ([1]; strain YT14) | Minimum inhibitory concentration (MIC) ([1]; strain YT15) | Minimum inhibitory concentration (MIC) ([1]; strain YT16) | Minimum inhibitory concentration (MIC) ([1]; strain YT17) | Minimum inhibitory concentration (MIC) ([1]; strain YT18) | Minimum inhibitory concentration (MIC) ([1]; strain YT19) | Minimum inhibitory concentration (MIC) ([1]; strain YT20) | also measured
CC(C)(O/N=C(\C(=O)N[C@@H]1C(=O)N2C(C(=O)[O-])=C(C[n+]3ccccc3)CS[C@H]12)c1csc(N)n1)C(=O)O [Ceftazidime] | 0.122 | 0.488 | 0.488 | 0.488 | 7.81 | 1.953 | 0.488 | 0.488 | 0.488 | 7.812 | 7.812 | 0.488 | 0.488 | 0.488 | 0.488 | 0.488 | 0.488 | 0.488 | 0.488 | 0.122 | MIC compared with the control E. coli K12 ([1]; strain YT1): the same as the control; Minimum inhibitory concentration (MIC) ([1]; strain YT21): 0.488; Minimum inhibitory concentration (MIC) ([1]; strain YT22): 0.488; Minimum inhibitory concentration (MIC) ([1]; strain YT23): 0.488; Minimum inhibitory concentration (MIC) ([1]; strain YT24): 7.812; Minimum inhibitory concentration (MIC) ([1]; strain YT25): 31.25; Minimum inhibitory concentration (MIC) ([1]; strain YT26): 31.25; Minimum inhibitory concentration (MIC) ([1]; strain YT27): 0.488; Minimum inhibitory concentration (MIC) ([1]; strain YT28): 31.25; Minimum inhibitory concentration (MIC) ([1]; strain YT29): 7.812; Minimum inhibitory concentration (MIC) ([1]; strain YT30): 7.812; Minimum inhibitory concentration (MIC) [2]: 0.122
Gentamicin | 2.441 | 156.25 | 156.25 | 9.765 | 625 | 156.25 | 625 | 625 | 156.25 | 625 | 2500 | 2500 | 2500 | 2500 | 2500 | 2500 | 2500 | 2.441 | 625 | 156.25 | Minimum inhibitory concentration (MIC) ([1]; strain YT21): 2500; Minimum inhibitory concentration (MIC) ([1]; strain YT22): 2500; Minimum inhibitory concentration (MIC) ([1]; strain YT23): 156.25; Minimum inhibitory concentration (MIC) ([1]; strain YT24): 625; Minimum inhibitory concentration (MIC) ([1]; strain YT25): 2500; Minimum inhibitory concentration (MIC) ([1]; strain YT26): 2500; Minimum inhibitory concentration (MIC) ([1]; strain YT27): 625; Minimum inhibitory concentration (MIC) ([1]; strain YT28): 2500; Minimum inhibitory concentration (MIC) ([1]; strain YT29): 625; Minimum inhibitory concentration (MIC) ([1]; strain YT30): 39.0625; Minimum inhibitory concentration (MIC) [2]: 0.61
NCC[C@H](O)C(=O)N[C@@H]1C[C@H](N)[C@@H](O[C@H]2O[C@H](CN)[C@@H](O)[C@H](O)[C@H]2O)[C@H](O)[C@H]1O[C@H]1O[C@H](CO)[C@@H](O)[C@H](N)[C@H]1O [Amikacin] | 9.765 | 9.765 | 9.765 | 9.765 | 9.765 | 9.765 | 9.765 | 9.765 | 2.441 | 39.0625 | 2500 | 2500 | 2500 | 2500 | 2500 | 2500 | 2500 | 2.441 | 9.76 | 2.441 | Minimum inhibitory concentration (MIC) ([1]; strain YT21): 2500; Minimum inhibitory concentration (MIC) ([1]; strain YT22): 625; Minimum inhibitory concentration (MIC) ([1]; strain YT23): 9.765; Minimum inhibitory concentration (MIC) ([1]; strain YT24): 9.765; Minimum inhibitory concentration (MIC) ([1]; strain YT25): 2500; Minimum inhibitory concentration (MIC) ([1]; strain YT26): 2500; Minimum inhibitory concentration (MIC) ([1]; strain YT27): 9.765; Minimum inhibitory concentration (MIC) ([1]; strain YT28): 2500; Minimum inhibitory concentration (MIC) ([1]; strain YT29): 9.765; Minimum inhibitory concentration (MIC) ([1]; strain YT30): 2.441; Minimum inhibitory concentration (MIC) [2]: 0.61
CNC1CCCN(c2c(F)cc3c(=O)c(C(=O)O)cn(C4CC4)c3c2OC)C1 (stereo not shown) [Balofloxacin] | 0.244 | 3.906 | 15.625 | 250 | 250 | 62.5 | 15.625 | 250 | 250 | 15.625 | 3.906 | 62.5 | 62.5 | 15.625 | 15.625 | 250 | 250 | 62.5 | 62.5 | 62.5 | Minimum inhibitory concentration (MIC) ([1]; strain YT21): 15.625; Minimum inhibitory concentration (MIC) ([1]; strain YT22): 62.5; Minimum inhibitory concentration (MIC) ([1]; strain YT23): 15.625; Minimum inhibitory concentration (MIC) ([1]; strain YT24): 15.625; Minimum inhibitory concentration (MIC) ([1]; strain YT25): 0.244; Minimum inhibitory concentration (MIC) ([1]; strain YT26): 15.625; Minimum inhibitory concentration (MIC) ([1]; strain YT27): 15.625; Minimum inhibitory concentration (MIC) ([1]; strain YT28): 15.625; Minimum inhibitory concentration (MIC) ([1]; strain YT29): 15.625; Minimum inhibitory concentration (MIC) ([1]; strain YT30): 15.625; Minimum inhibitory concentration (MIC) [2]: 0.015
CCC[C@@H]1C[C@@H](C(=O)N[C@@H]([C@H]2O[C@H](SC)[C@H](O)[C@@H](O)[C@H]2O)[C@H](C)Cl)N(C)C1 [Clindamycin hydrochloride] | 390.625 | 390.625 | 390.625 | 1562.5 | 6250 | 1562.5 | 6250 | 6250 | 1562.5 | 6250 | 25000 | 25000 | 25000 | 25000 | 25000 | 25000 | 25000 | 390.625 | 390.625 | 390.625 | Minimum inhibitory concentration (MIC) ([1]; strain YT21): 390.625; Minimum inhibitory concentration (MIC) ([1]; strain YT22): 390.625; Minimum inhibitory concentration (MIC) ([1]; strain YT23): 390.625; Minimum inhibitory concentration (MIC) ([1]; strain YT24): 390.625; Minimum inhibitory concentration (MIC) ([1]; strain YT25): 390.625; Minimum inhibitory concentration (MIC) ([1]; strain YT26): 390.625; Minimum inhibitory concentration (MIC) ([1]; strain YT27): 390.625; Minimum inhibitory concentration (MIC) ([1]; strain YT28): 1562.5; Minimum inhibitory concentration (MIC) ([1]; strain YT29): 390.625; Minimum inhibitory concentration (MIC) ([1]; strain YT30): 390.625; Minimum inhibitory concentration (MIC) [2]: 24.414
CN(C)[C@@H]1C(O)=C(C(N)=O)C(=O)[C@@]2(O)C(O)=C3C(=O)c4c(O)cccc4[C@@](C)(O)[C@H]3C[C@@H]12 [Tetracycline] | 6.1 | 24.414 | 97.656 | 390.625 | 390.625 | 97.656 | 97.656 | 97.656 | 97.656 | 97.656 | 97.656 | 6250 | 6250 | 6250 | 6250 | 6250 | 6250 | 1562.5 | 1562.5 | 1562.5 | Minimum inhibitory concentration (MIC) ([1]; strain YT21): 1562.5; Minimum inhibitory concentration (MIC) ([1]; strain YT22): 1562.5; Minimum inhibitory concentration (MIC) ([1]; strain YT23): 1562.5; Minimum inhibitory concentration (MIC) ([1]; strain YT24): 1562.5; Minimum inhibitory concentration (MIC) ([1]; strain YT25): 6.103; Minimum inhibitory concentration (MIC) ([1]; strain YT26): 97.656; Minimum inhibitory concentration (MIC) ([1]; strain YT27): 97.656; Minimum inhibitory concentration (MIC) ([1]; strain YT28): 390.625; Minimum inhibitory concentration (MIC) ([1]; strain YT29): 390.625; Minimum inhibitory concentration (MIC) ([1]; strain YT30): 390.625; Minimum inhibitory concentration (MIC) [2]: 1.526
